Details: in DMF

solubility (mole fraction) (303.2 K)	solubility (mole fraction) (313.2 K)	solubility (mole fraction) (323.2 K)	solubility (mole fraction) (333.2 K)	solubility (mole fraction) (343.2 K)	solubility (mole fraction) (353.2 K)	Structure (SMILES)
2.64e-05	3.51e-05	4.56e-05	6.16e-05	8.67e-05	0.000122	Clc1ccc(-c2c3nc(c(-c4ccc(Cl)cc4)c4ccc([nH]4)c(-c4ccc(Cl)cc4)c4nc(c(-c5ccc(Cl)cc5)c5ccc2[nH]5)C=C4)C=C3)cc1
9.76e-05	0.000107	0.00012	0.000136	0.000166	–	C1=Cc2nc1c(-c1ccccc1)c1ccc([nH]1)c(-c1ccccc1)c1nc(c(-c3ccccc3)c3ccc([nH]3)c2-c2ccccc2)C=C1
